Test results taken from patent publication US20030086911A1, “Methods and compositions for the stimulation of human immunodeficiency virus-specific cytotoxic T lymphocytes employing autologous antigen-peripheral blood mononuclear cells” (Department of Health and Human Services, priority 1993, published 2003).

How the values were obtained:
[1] = system: BALB/c 3T3 neo-only transfectants (18neo); assay: 51Cr-release CTL assay with T1272-specific effectors on peptide-sensitized fibroblast targets; assay type: cell-based, BALB/c mice; settings: for % specific 51Cr release, Immune spleen cells: 0.1 μM peptide on 18neo targets, effectors spleen cells of 10 μM T1272 peptide-pulsed spleen cell-immunized BALB/c mice restimulated with 0.1 μM T1272; for % specific 51Cr release, Immune spleen cells / % specific 51Cr release, CTL line: E/T 40:1; for % specific 51Cr release, CTL line: 1.0 μM peptide on 18neo targets, short-term T1272-specific BALB/c CTL line (3 weeks in culture); for peptide concentration able to sensitize targets for lysis: titrated in the killing assay, T1272 peptide-immune splenic CTL at 40:1 (FIG. 1C)
Protocol: CTL generation: BALB/c (H-2^d) mice were immunized intravenously with 20×10^6 spleen cells pulsed with various concentrations of T1272 peptide for two hours at 37° C. and irradiated at 2,000 rad (by the method of H. Takahashi, Y. Nakagawa, K. Yokomuro, & J. A. Berzofsky, submitted). One week later, immune spleen cells (3×10^6/ml) were restimulated for six days in vitro with various concentrations of T1272 peptide in 10% Rat-T Stim, without Con A (Collaboration Research Incorporated, Bedford, Mass.) in 24-well culture plates in complete T-cell medium (CTM)(14), a 1:1 mixture of RPMI 1640 and Eagle-Hanks amino acid medium containing 10% fetal bovine serum, 2 mM L-glutamine, penicillin (100 U/ ml), streptomycin (100 μg/ml), and 5×10^−5 M 2 mercaptoethanol.
CTL Assay. Cytolytic activity of the restimulated cells was measured as described (15) by using a six-hour assay with various ^51Cr-labeled targets. For testing the peptide specificity of CTL, effectors and ^51CR-labeled targets were mixed with various concentrations of peptide at the beginning of the assay. The percentage specific ^51CR release was calculated as 100(experimental release−spontaneous release)/(maximum release−spontaneous release). Maximum release was determined from supernatants of cells that were lysed by addition of 5% Triton X-100. Spontaneous release was determined from target cells incubated without added effector cells.
To more precisely identify the T-cell epitope recognized by T1272-specific BALB/c CTL, and to test the hypothesis that the response was specific for the neo-antigenic determinant created by the mutation, a series of peptides was synthesized and various concentrations of these peptides were individually added to effectors and ^51Cr-labeled fibroblast targets at the start of the assay culture. We measured the cytotoxic activity of two types of effector cells: spleen cells from mice immunized with peptide-pulsed cells stimulated once in vitro with 0.1 μM T1272 peptide (presumably polyclonal·effector populations), and a short-term CTL line (possibly an oligoclonal population, although only three weeks in culture).
CTL effectos were spleen cells derived from die 10 μM T1272 peptide-pulsed spleen cell-immunized BALB/c mice (restimulated 6 days with 0.1 μM T1272 peptide) (left) or a short-term T1272-specific BALB/c CTL line (after 3 weeks in culture) (right). BALB/c 3T3 neo-only transfectants (18neo) (H-2^d) plus 0.1 μM synthetic peptide were used as targets with BALB/c spleen effectors or with 1.0 μM peptide for the CTL line. […] The effector/target cell ratio was 40:1. The arrow and bold-face amino acids indicate the site of the 135 Cys to Tyr mutation. Underlined amino acids correspond to human p53 residues which differ from the mouse p53.

[2] = system: HIV-1-IIIB gp160-gene transfected BALB/c.3T3 fibroblasts; assay: CTL induced by i.v. immunization with peptide-pulsed irradiated cells, 51Cr release on gp160 transfectants; assay type: in vivo, BALB/c mice; settings: cells pulsed with the 10-mer before immunization; without adding IL-2 exogenously (FIG. 9)
Protocol: CTL Generation. Immunizations were carried out either subcutaneously (s.c.) in the base of the tail, or intraperitoneally (i.p.), or intravenously (i.v.) from the tail vein with 27 G needle. Several weeks later, immune spleen cells (5×10^6/ml in 24-well culture plates in complete T-cell medium (a 1:1 mixture of RPMI 1640 and EHAA medium containing 10% FCS, 2 mM L-glutamine, 100 U/ml penicillin, 100 μg/ml streptomycin and 5×10^−5M 2-mercaptoethanol)) were restimulated for 6 days in vitro with mitomycin-C treated HIV-1-IIIB envelope gp160 gene transfected histocompatible BALB/c.3T3 fibroblasts alone or in the presence of 10% Rat Con-A supernatant-containing medium (Rat T-cell Monoclone) (Collaborative Research, Inc., Bedford, Mass.) or 10 U/ml of recombinant mouse IL-2 (rIL-2) (Genzyme, Boston, Mass.).
CTL assay. After culture for 6 days, cytolytic activity of the restimulated cells was measured as previously described (21) using a 6 hr assay with various ^51Cr-labelled targets, as indicated in the figure legends. […] The percent specific ^51Cr release was calculated as 100 (experimental release−spontaneous release)/(maximum release−spontaneous release). Maximum release was determined from supernatants of cells that were lysed by addition of 5% Triton-X 100. Spontaneous release was determined from target cells incubated without added effector cells. […]

[3] = system: L-cell (H-2^k) transfectants expressing D^d, L^d and K^d; assay: MHC-restriction mapping of T1272 peptide recognition by CTL; assay type: cell-based, mouse; settings: 0.1 μM peptide T1272, K^d L-cell transfectants (FIG. 2B)
Protocol: MHC-restriction mapping. L-cell (H-2^k) transfectants expressing D^d (T4.8.3 (18), L^d (T1.1.1 (19) and K^d (B4III-2(20)) were used as targets, in the presence or absence of 0.1 μM peptide T1272. neo gene transfected BALB/c 3T3 fibroblasts (18neo) (H-2^d) (21) were used as a positive control, and neo gene-transfected L-cells L28 (H-2^k) (21) were used as a negative target control, also in the presence or absence of peptide.
The BALB/c 3T3 (18neo) fibroblasts (H-2^d) used as targets in these experiments express class I but not class II MHC gene products.
In this experiment, 2×10^3 51Cr-labeled targets were cultured with T1272-immune splenic effector cells (a short-term line stimulated twice with 0.1 μM peptide) at several effector/target cell ratios in the presence or absence of 0.1 μM peptide T1272. L-cell (H-2^k) transfectants expressing D^d (T4.8.3 (18)), L^d (T1.1.1 (19)) and K^d (B4III-2 (20)) were used as targets. neo gene transfected BALB/c 3T3 fibroblasts (isneo) (H-2^d) (21) were used as a positive control, and neo gene-transfected L-cells L28 (H-2^k) (21) were used as a negative target control. Spontaneous release was less than 20% of maximal release. Although background without peptide varied among the different transfectants from experiment to experiment, T1272 peptide-specific lysis was consistently seen only in the cells expressing K^d, in five different experiments. […]

Sequence | % specific 51Cr release, Immune spleen cells [1] | % specific 51Cr release, CTL line [1] | peptide concentration able to sensitize targets for lysis [1] | priming of CD8+ CTL by minimal peptide [2] | class I MHC restriction of peptide recognition by CTL [3]
FYQLAKTCPV [Peptide V10] | 62.7% | 53.7% |  |  | 
RIQRGPGRAFVTIGK [Peptide P18IIIB] |  |  | not recognized at any concentration |  | 
KMFYQLAKTCPVQL [Peptide L14, C-terminal 14 residues of the T1272 peptide] | 22.2% | 22.1% |  |  | 
RGPGRAFVTI [Peptide 18IIIB-I-10] |  |  |  | can prime CD8^+ CTL almost as well as 18IIIB | 
TYSPALNKMFYQLAKTCPVQL [Peptide T1272] | 35.4% | 24.7% | < 0.1 µM |  | restricted by the class I molecule K^d
ALNKMFYQLAKT [Peptide T12] | 9.7% | −9.1% |  |  | 
TYSPALNKMFYQL [Peptide L13] | 14.7% | −8.9% |  |  | 
